Experimental data published in PubChem BioAssay (NCI).
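Assay format: 96-well plates, 48-hour exposure. The concentration for 50% growth inhibition is given as GI50. TGI: total growth inhibition.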

Key:
Test in all cases: DTP human tumour cell line panel, 48 h
EKVX NSCLC = test system: EKVX NSCLC
CCRF-CEM leukemia = test system: CCRF-CEM leukemia
RXF 393 renal = test system: RXF 393 renal
U251 CNS = test system: U251 CNS
HCT-116 colon = test system: HCT-116 colon
SW-620 colon = test system: SW-620 colon
MOLT-4 leukemia = test system: MOLT-4 leukemia
IGROV1 ovarian = test system: IGROV1 ovarian
MCF7 breast = test system: MCF7 breast
PC-3 prostate = test system: PC-3 prostate

Molecule O=C1c2cccc([N+](=O)[O-])c2C(=O)c2nccnc21 has a TGI (EKVX NSCLC) of 3.92 µM, a TGI (CCRF-CEM leukemia) of 5.65 µM and a TGI (RXF 393 renal) of 3.71 µM. For the same molecule, the TGI (U251 CNS) was 4.34 µM, the TGI (HCT-116 colon) was 3.66 µM and the TGI (SW-620 colon) was 3.92 µM. For the same molecule, the TGI (MOLT-4 leukemia) was 5.22 µM.
Molecule CC(=O)N(C)c1cc(NCc2ccccc2)ccc1OCc1ccccc1 has a TGI (EKVX NSCLC) of 42.3 µM, a TGI (CCRF-CEM leukemia) of 45 µM and a TGI (RXF 393 renal) of 28.6 µM. The TGI (U251 CNS) was 32.9 µM, the TGI (HCT-116 colon) was over 100 µM and the TGI (SW-620 colon) was 56.5 µM. For the same molecule, the TGI (IGROV1 ovarian) was 30.5 µM, the TGI (MOLT-4 leukemia) was 50.4 µM and the TGI (MCF7 breast) was 35.2 µM.
O=C(CN(Cc1ccccc1)Cc1ccccc1)N1CCc2c([nH]c3ccccc23)C1c1cccnc1 (stereo not drawn) was tested, and the TGI (EKVX NSCLC) was over 100 µM, the TGI (CCRF-CEM leukemia) was 41.4 µM and the TGI (U251 CNS) was 26.7 µM. The TGI (HCT-116 colon) was 16.2 µM, the TGI (SW-620 colon) was over 100 µM and the TGI (IGROV1 ovarian) was over 100 µM. The TGI (MOLT-4 leukemia) was 6.88 µM.
For CN1C(c2ccccc2)CC(C)(O)CC1c1ccccc1 (stereo not drawn), the TGI (EKVX NSCLC) was over 100 µM, the TGI (CCRF-CEM leukemia) was over 100 µM and the TGI (RXF 393 renal) was over 100 µM. For the same molecule, the TGI (U251 CNS) was over 100 µM, the TGI (HCT-116 colon) was over 100 µM and the TGI (SW-620 colon) was over 100 µM. For the same molecule, the TGI (IGROV1 ovarian) was over 100 µM and the TGI (MOLT-4 leukemia) was over 100 µM.
In the case of Cc1ccccc1C=NC12CC3CC(CC(C3)C1)C2, the TGI (EKVX NSCLC) is reported as over 100 µM, the TGI (CCRF-CEM leukemia) is reported as over 100 µM and the TGI (RXF 393 renal) is reported as over 100 µM. It also gave a TGI (U251 CNS) of over 100 µM, a TGI (HCT-116 colon) of over 100 µM and a TGI (SW-620 colon) of over 100 µM. For the same molecule, the TGI (IGROV1 ovarian) was over 100 µM and the TGI (MOLT-4 leukemia) was over 100 µM.
CCC1=C[C@@H]2CN(C1)Cc1c([nH]c3ccccc13)[C@@](C(=O)OC)(c1cc3c(cc1OC)N(C)[C@H]1[C@@](O)(C(=O)OC)[C@H](OC(C)=O)[C@]4(CC)C=CCN5CC[C@]31[C@@H]54)C2 was tested, and the GI50 (EKVX NSCLC) was under 0.01 µM, the TGI (EKVX NSCLC) was 18.8 µM and the GI50 (CCRF-CEM leukemia) was under 0.01 µM. The TGI (CCRF-CEM leukemia) was 0.71 µM, the GI50 (U251 CNS) was under 0.01 µM and the TGI (U251 CNS) was 8.42 µM. It also gave a GI50 (HCT-116 colon) of under 0.01 µM, a TGI (HCT-116 colon) of over 40.4 µM and a GI50 (SW-620 colon) of under 0.01 µM. The TGI (SW-620 colon) was 17.9 µM, the GI50 (IGROV1 ovarian) was under 0.0136 µM and the TGI (IGROV1 ovarian) was 0.463 µM. The GI50 (PC-3 prostate) was under 0.01 µM, the TGI (PC-3 prostate) was 21.8 µM and the GI50 (MOLT-4 leukemia) was under 0.01 µM. The TGI (MOLT-4 leukemia) was 3.5 µM, the GI50 (MCF7 breast) was under 0.01 µM and the TGI (MCF7 breast) was 11.5 µM.
Cc1cc(Cl)ccc1NC(=O)CC1SC(=NC(=O)c2ccccc2Cl)NC1=O (stereo not drawn) was tested, and the TGI (EKVX NSCLC) was over 100 µM, the TGI (CCRF-CEM leukemia) was 8.66 µM and the TGI (RXF 393 renal) was 35.1 µM. For the same molecule, the TGI (U251 CNS) was 30.1 µM, the TGI (HCT-116 colon) was 32 µM and the TGI (SW-620 colon) was 32.3 µM. For the same molecule, the TGI (IGROV1 ovarian) was over 100 µM and the TGI (MOLT-4 leukemia) was 6.65 µM.
For CC[O-].CC[O-].COc1ccc(C(=O)[CH-]C(C)=O)cc1OC.COc1ccc(C(=O)[CH-]C(C)=O)cc1OC.[Ti+4], the GI50 (EKVX NSCLC) was 24.6 µM, the TGI (EKVX NSCLC) was 79.6 µM and the GI50 (CCRF-CEM leukemia) was 27.8 µM. It also gave a TGI (CCRF-CEM leukemia) of over 100 µM, a GI50 (RXF 393 renal) of 34.1 µM and a TGI (RXF 393 renal) of 99.7 µM. The GI50 (HCT-116 colon) was over 100 µM, the TGI (HCT-116 colon) was over 100 µM and the GI50 (SW-620 colon) was over 100 µM. The TGI (SW-620 colon) was over 100 µM, the GI50 (IGROV1 ovarian) was 54.8 µM and the TGI (IGROV1 ovarian) was over 100 µM. The GI50 (MOLT-4 leukemia) was 35.4 µM and the TGI (MOLT-4 leukemia) was over 100 µM.
In the case of CS(=O)(=O)O[C@H]1C(=O)N(c2cc3c4ccccc4ccc3c3ccccc23)[C@@H]1c1ccccn1, the GI50 (CCRF-CEM leukemia) is reported as 0.515 µM, the TGI (CCRF-CEM leukemia) is reported as over 100 µM and the GI50 (RXF 393 renal) is reported as 0.242 µM. It also gave a TGI (RXF 393 renal) of 0.878 µM, a GI50 (U251 CNS) of 0.685 µM and a TGI (U251 CNS) of over 100 µM. For the same molecule, the GI50 (HCT-116 colon) was 0.372 µM, the TGI (HCT-116 colon) was 23 µM and the GI50 (SW-620 colon) was 0.401 µM. For the same molecule, the TGI (SW-620 colon) was over 100 µM, the GI50 (IGROV1 ovarian) was 2.14 µM and the TGI (IGROV1 ovarian) was over 100 µM. It also gave a GI50 (PC-3 prostate) of 0.399 µM, a TGI (PC-3 prostate) of over 100 µM and a GI50 (MOLT-4 leukemia) of 2.22 µM. It also gave a TGI (MOLT-4 leukemia) of over 100 µM, a GI50 (MCF7 breast) of 0.321 µM and a TGI (MCF7 breast) of over 100 µM.
Cc1cc2c(C(=O)NCC#N)cccc2n1-c1nc2c(c(NCc3ccccc3)n1)CCCC2 was tested, and the GI50 (EKVX NSCLC) was 0.329 µM, the TGI (EKVX NSCLC) was 2.4 µM and the GI50 (RXF 393 renal) was 0.225 µM. For the same molecule, the TGI (RXF 393 renal) was 0.541 µM, the GI50 (U251 CNS) was 0.227 µM and the TGI (U251 CNS) was 0.521 µM. For the same molecule, the GI50 (HCT-116 colon) was 0.185 µM, the TGI (HCT-116 colon) was 0.637 µM and the GI50 (SW-620 colon) was 0.355 µM. For the same molecule, the TGI (SW-620 colon) was 1.29 µM, the GI50 (IGROV1 ovarian) was 0.315 µM and the TGI (IGROV1 ovarian) was 1.24 µM. The GI50 (MOLT-4 leukemia) was 0.313 µM, the TGI (MOLT-4 leukemia) was 65.6 µM and the GI50 (MCF7 breast) was 0.25 µM. It also gave a TGI (MCF7 breast) of 8.17 µM.
